Laboratory results as given in US20100190737A1, “COMPOSITIONS COMPRISING INOSINE AND OROTIC ACID AND METHODS OF USE THEREOF FOR THE TREATMENT OF CERTAIN HEART CONDITIONS AND ENHANCEMENT OF WORK CAPACITY” (NUTRITIONAL RESEARCH GROUP LLC, priority 2009, published 2010).
“And” between values parts separate entries of the source, which are not always exact repeats. Identical values can stand only once.

Columns and labels:
[1] = system: rats with experimental aortic stenosis; experiment: Long term (12 month) experimental aortic stenosis; type: in vivo, rat; conditions: for Mortality %: 12 month study, 15 rats per group, inosine 25, potassium orotate 50 mg/kg/day from day 45 for 10.5 months, untreated stenosis 47
Protocol: A 12 month study using 60 white unbred male rats with initial body weights of 110-120 g, divided into four experimental groups, each group with 15 rats. Group I included intact animals (controls); Group II—rats with experimental aortic stenosis (untreated stenosed controls); Group III rats with experimental aortic stenosis given inosine in doses of 25 mg/kg/day; and Group IV rats with experimental aortic stenosis given both inosine and an orotic acid (in the instant study potassium orotate was used, however, as the orotic acid comprises 93-95% percent of any of the orotates, the results achieved are indicative of usage of any of the orotates including the potassium orotate used herein) combination in doses of 25 and 50 mg/kg/day, respectively, intragastrically, using a metal curved tube, beginning from the 45th day after the creation date of the abdominal aortic stenosis, and continuing for 10.5 months. The abdominal aortic stenosis was produced by the method of Beznak, referred to hereinabove, modified by Kogan, referred to above.
During the experimental period the animals in all four groups had regular measurements (recordings) of body weight and the 3-standard lead EKG-ms and 5-plane pericardial vector-cardiograms (VCG). At the beginning and end of the experimental period they also underwent tests for the endurance of a single, dosed physical exercise—forced swimming in a pool at 28-30° C., until maximally exhausted. Specifically, an animal had fixed to its tail a lead weight weighing approximately 7.5% percent of the animal's body weight became submerged due to the inability to continue swimming. At the end of the experimental period, the animals were sacrificed, and their hearts, thymuses, livers, adrenals and thyroids were weighed and their relative weights per 100 g body weight were calculated and recorded. Histological figures of sectioned cardiac muscle stained with hematoxilin-eosin were prepared by Van Hison's technique and examined for any attendant alterations in the normal histology of the heart. During the experiment, (untreated aortic stenosis) 8 of the 15 rats in Group II died, while in Group III (treated stenosis w/inosine) and Group IV (treated stenosis w/inosine and potassium orotate)—only 3 rats in each group died. […] The observed time period wherein the rats could swim were as follows: Groups I animals 45±2.0 minutes; Group II 6.5±2.1 minutes; Group III 16±1.2 minutes; and Group IV 32±4 minutes, respectively. Thus, the group receiving the combination of inosine and potassium orotate performed far better than Group II (untreated stenosis) and had doubled the work capacity of Group III (treated with inosine only). The relative weight of the heart in animals in Groups II, III and IV was higher than in Group I (control group) by 67%, 36% and 56%, respectively. (See Tables 2 A-B). The hearts of Group II animals were in the state of eccentric hypertrophy which explains the higher weight (see FIG. 5). The left ventricular wall in the animals of Group II was 8% thinner than in rats of Group I as a result of the eccentric condition. In rats of Groups III and IV the left ventricular wall was 30% and 46% thicker, respectively, than the rats in group I and they were all in the state of concentric heart hypertrophy.

white rats = experiment: Long-term (6 months) work capacity in trained and non-trained rats; conditions: for Glycogen in m. quadriceps, After work / Glycogen in m. quadriceps, In rest: end of experiments; for Swimming time After 6 mo.: INO 25 mg/kg, PO 50 mg/kg
Protocol: Seventy two white rats were randomly placed in 6 groups (12 animals each), to test the effectiveness of training and to determine morphological and physiological alterations in the rats. In Group I, control rats were nontrained and not administered either of inosine or the combination of inosine and orotate; Group II comprised non-trained rats to which were administered inosine (25 mg/kg/body weight; Group III comprised non-trained rats to which were administered the combination of inosine plus potassium orotate (25 mg/kg/body weight of inosine and 50 mg/kg/body weight potassium orotate); Group IV comprised trained rats that were not administered either of inosine or the combination of inosine and orotate; Group V comprised trained rats to which was administered inosine alone (25 mg/kg/body weight), and Group VI comprised trained rats to which was administered the combination of inosine plus potassium orotate (25 mg/kg/body weight of inosine and 50 mg/kg/body weight potassium orotate).
Training of rats consisted of their forced swimming in a water bath (28-30° C.) with a weight fixed on their backs (7.5% of the rat body weight). During the first two weeks the animals swam daily for 5-10 minutes, after which we determined the individual maximum time of swimming to exhaustion (i.e. maximum work capacity) for each animal and then calculated the mean maximum time for each group. After 2 weeks these initial maximum work capacity values were used for planning and performing additional swimming training.
The functional condition of the rats at rest was estimated from their work capacity (maximum swimming time), body weight increase, EKG tests, oxygen consumption and sodium and potassium levels in the myocardium in a relatively quiet state. The morphological state of the heart and other viscera were rated from their absolute and relative weights, and also from histological and histochemical examinations of the myocardium. Also determined were the amounts of glycogen in the m. quadriceps (quadriceps group of muscles) of the hip, the myocardium and the liver. All the quantitative results obtained were processed with conventional statistical procedures.

SMILES: OC[C@H]1O[C@@H](n2cnc3c(O)ncnc32)[C@H](O)[C@@H]1O [inosine]
- EKG QRS 1½ months ([1]; 1½ months (before treatment)): 0.021 ± 0.004 s
- EKG R Wave Voltage 1½ months ([1]; 1½ months (before treatment)): 0.38 ± 0.05 mV
- EKG Stroke Index 1½ months ([1]; 1½ months (before treatment)): 47 ± 10%
- Heart Rate 1½ months ([1]; 1½ months (before treatment)): 410 ± 11 beats/min
- T Wave Voltage 1½ months ([1]; 1½ months (before treatment)): 0.21 ± 0.01 mV
- Mortality % [1]: 20%
- Mortality % ([1]; listed as Inosine): 20%
- EKG QRS 12 months ([1]; 12 months): 0.022 ± 0.001 s
- EKG R Wave Voltage 12 months ([1]; 12 months): 0.9 ± 0.09 mV
- EKG Stroke Index 12 months ([1]; 12 months): 34 ± 1.2%
- Heart Rate 12 months ([1]; 12 months): 420 ± 16 beats/min
- T Wave Voltage 12 months ([1]; 12 months): 0.29 ± 0.05 mV
- left ventricular wall thicker than in Group I ([1]; 12 months): 30%
- relative weight of the heart higher than in Group I (control) ([1]; 12 months): 36%
- QRS-T angle 120° to 180° ([1]; 12 months after surgery): 5
- Relative weight of Heart ([1]; 12 months after surgery): 387 ± 9.5 mg/100 g
- Thickness of Left Ventricular Wall ([1]; 12 months after surgery): 3.9 ± 0.14 mm
- VGC QRS Amplitude ([1]; 12 months after surgery): 3.2 ± 0.12 mV
- VGC QRS Area ([1]; 12 months after surgery): 8.3 ± 1.1 cm^2
- VGC QRS Not closed ([1]; 12 months after surgery): 58%
- VGC T Amplitude ([1]; 12 months after surgery): 0.6 ± 0.01 mV
- Working capacity (min) 1½ months ([1]; forced swimming, 1½ months after surgery (treatment began on the 45th day)): 43 ± 4.6 min
- Working capacity (min) 12 months ([1]; forced swimming, 12 months after surgery, 10.5 months of treatment): 16 ± 1.2 min and 16 ± 1.3 min
- appearance of the myocardium, light micrographs (FIG. 6) ([1]; haemotoxylin-eosin stained sections): normal appearance
- rats that died during the experiment ([1]; of 15 rats per group, untreated stenosis 8): 3 rats
- development of cardiac eccentric hypertrophy ([1]; prolonged administration): prevented development of cardiac eccentric hypertrophy
- ultrastructure of left ventricular myocardium, mitochondria (FIG. 7) ([1]; rat, in vivo): normal sized mitochondria
- critical heart weight enhanced by ([1]; versus critical weight of rats with the same body weight): 16%
- animal body weights (white rats; after 6 months): did not materially alter animal body weights
- HEART RATE (white rats; after 6 months training): 300 ± 5.2 beats per minute
- PQ (white rats; after 6 months training): 0.047 ± 0.03
- QRS (white rats; after 6 months training): 0.031 ± 0.004
- QT (white rats; after 6 months training): 0.076 ± 0.001
- Systolic Index (white rats; after 6 months training): 38 ± 6.3
- ΣR (white rats; after 6 months training): 17 ± 0.5 mm
- toxic effects on the functional state of the animals, morphology of the myocardium (white rats; rat, in vivo): did not manifest any toxic effects
- Heart weight after 6 mo. (white rats; trained rats): 359 ± 3.9 mg/100gk BW
- ORGAN WEIGHT Heart (white rats; trained rats): 359.3 ± 4.5 mg PER 100 GRAMs Body Weight
- P/S In all rats group (white rats; trained rats): 1.34 ± 0.12
- P/S In quiet state (white rats; trained rats): 1.16 ± 0.08
- P/S In rat sacrificed after intense physical exercise (white rats; trained rats): 1.55 ± 0.04
- Potassium (myocardium) (white rats; trained rats): 0408 ± 0.015 mcq/gram dry tissue
- Sodium (myocardium) (white rats; trained rats): 0.304 ± 0.018 mcq/gram dry tissue
- Swimming time Before (white rats; trained rats): 65 ± 6.6 min
- Glycogen in m. quadriceps, After work (white rats; trained rats): 558 ± 13.4
- Glycogen in m. quadriceps, In rest (white rats; trained rats): 889 ± 26.0
- Swimming time After 6 mo. (white rats; trained rats, trained control 142 ± 2.4): 180 ± 3.4 min
- Heart weight after 6 mo. (white rats; untrained rats): 302 ± 91 mg/100gk BW
- ORGAN WEIGHT Heart (white rats; untrained rats): 309.4 ± 9.7 mg PER 100 GRAMs Body Weight
- Oxygen consumption End of experiment (white rats; untrained rats): 26.0 ± 0.82 ml/min/kg BW
- P/S In all rats group (white rats; untrained rats): 1.85 ± 0.05
- P/S In quiet state (white rats; untrained rats): 2.01 ± 0.3
- P/S In rat sacrificed after intense physical exercise (white rats; untrained rats): 1.67 ± 0.09
- Potassium (myocardium) (white rats; untrained rats): 0481 ± 0.03 mcq/gram dry tissue
- Sodium (myocardium) (white rats; untrained rats): 0.261 ± 0.018 mcq/gram dry tissue
- Swimming time Before (white rats; untrained rats): 65 ± 5.0 min
- Glycogen in m. quadriceps, After work (white rats; untrained rats): 450 ± 28.3
- Glycogen in m. quadriceps, In rest (white rats; untrained rats): 829 ± 42.0
- Swimming time After 6 mo. (white rats; untrained rats): 70 ± 4.0 min
- HEART RATE (white rats; untrained, after 6 months): 452 ± 8.6 beats per minute
- PQ (white rats; untrained, after 6 months): 0.054 ± 0.003
- QRS (white rats; untrained, after 6 months): 0.026 ± 0.003
- QT (white rats; untrained, after 6 months): 0.06 ± 0.001
- Systolic Index (white rats; untrained, after 6 months): 42.5 ± 9.7
- ΣR (white rats; untrained, after 6 months): 14 ± 0.7 mm
